The source of these data is ChEMBL document CHEMBL3045483, “Chalcones as promising pesticidal agents against diamondback moth (Plutella xylostella): microwave-assisted synthesis and structureactivity relationship” (Med Chem Res, 2012).

Usually mortality stands for the percentage killed. For orientation: LC50 means the concentration lethal to half of the exposed cells or organisms.

Converted amounts (≈) assume the structure as drawn.

The subject of data set [1] is Plutella xylostella. The data set can be described thus: Insecticidal activity against second-instar larvae Plutella xylostella (diamondback moth) in compound treated cabbage leaves assessed as mortality at 5000 ug/mL after 48 hr by leaf dip method. The data set is classed as functional. To be noted: foliar.
In data set [2] the test system is Plutella xylostella. The data set can be described thus: Insecticidal activity against second-instar larvae Plutella xylostella (diamondback moth) in compound treated cabbage leaves assessed as mortality at 10000 ug/mL after 48 hr by leaf dip method. The data set is classed as functional. The settings on record: foliar.
A short description of data set [3]: Aqueous solubility of the compound. The settings on record: buffer. The data set is classed as physicochemical.
For data set [4], the system named is Plutella xylostella. The data set is described as follows: Insecticidal activity against second-instar larvae Plutella xylostella (diamondback moth) in compound treated cabbage leaves assessed as mortality after 48 hr by leaf dip method. The data set is classed as functional. The settings on record: foliar.

Turning to `COc1ccc(C(=O)/C=C/c2ccc(Br)cc2)cc1`, the mortality at 5000 µg/mL in the data set with Plutella xylostella [1] stood at 3.3%. Further, in the data set with Plutella xylostella [2], the mortality at 10000 µg/mL turned out to be 10%.
Regarding `COc1ccc(C(=O)/C=C/c2ccc(F)cc2)cc1`, the mortality at 5000 µg/mL in the data set on Plutella xylostella [1] turned out to be 26.6%. Besides, in the data set on Plutella xylostella [2], the mortality at 10000 µg/mL was determined as 33.3%.
Turning to `COc1ccc(C(=O)/C=C/c2cccc3ccccc23)cc1`, the solubility entry in data set [3] is “Insoluble”.
Still for that read-out and setting: in the case of `COc1cc(C(=O)/C=C/c2ccc(Cl)c(Cl)c2)cc(OC)c1OC` it was “Insoluble”; in that of `COc1cccc(C(=O)/C=C/c2ccc(Cl)c(Cl)c2)c1`, “Insoluble”.
Take `CC1(C)[C@H](C(=O)O[C@H](C#N)c2cccc(Oc3ccccc3)c2)[C@@H]1C=C(Br)Br` [DELTAMETHRIN]: in the data set with Plutella xylostella [4], the LC50 worked out at 6.25 µg/mL (≈ 12.4 µM).
Consider `O=C(/C=C/c1ccc(Cl)c(Cl)c1)c1ccc(Cl)c(Cl)c1`, for which the mortality at 5000 µg/mL in the data set on Plutella xylostella [1] stood at 46.6%. Besides, the mortality at 10000 µg/mL in the data set with Plutella xylostella [2] came to 73.3%.
`COc1ccc(C(=O)/C=C/c2ccc(Cl)cc2Cl)cc1`: the LC50 in the data set with Plutella xylostella [4] stood at 278 µg/mL (≈ 907 µM). Also, in the data set on Plutella xylostella [1], the mortality at 5000 µg/mL is 100%. Also, the mortality at 10000 µg/mL in the data set on Plutella xylostella [2] stood at 100%.
With `COc1ccc(C(=O)/C=C/c2ccc(Cl)c(Cl)c2)cc1`, the LC50 in the data set with Plutella xylostella [4] was 288 µg/mL (≈ 936 µM). For the same compound, the mortality at 5000 µg/mL in the data set with Plutella xylostella [1] was found to be 100%. Besides, in the data set on Plutella xylostella [2], the mortality at 10000 µg/mL is 100%.
With `COc1cc(/C=C/C(C)=O)ccc1O` [DEHYDROZINGERONE], the solubility result in data set [3] is given as “Insoluble”.
On to `O=C(/C=C/c1ccc(Cl)c(Cl)c1)c1ccc(Cl)cc1`, for which the mortality at 5000 µg/mL with Plutella xylostella [1] was found to be 60%. Also, the mortality at 10000 µg/mL with Plutella xylostella [2] was found to be 97.7%.
`C=CCOc1ccc(C(=O)/C=C/c2ccc(Cl)cc2)cc1`: in the data set with Plutella xylostella [4], the LC50 stood at 268 µg/mL (≈ 898 µM). Moreover, in the data set on Plutella xylostella [1], the mortality at 5000 µg/mL was found to be 100%. The mortality at 10000 µg/mL in the data set with Plutella xylostella [2] was 100%.
In the case of `COc1ccc(/C=C/C(=O)c2ccc(OC)cc2)cc1` [4,4'-DIMETHOXYCHALCONE], the mortality at 5000 µg/mL in the data set on Plutella xylostella [1] came to 16.6%. In the data set on Plutella xylostella [2], the mortality at 10000 µg/mL came to 26.6%.
`O=C(/C=C/c1ccc(Cl)cc1)c1ccc(Cl)cc1` [4',4-DICHLOROCHALCONE]: in the data set with Plutella xylostella [4], the LC50 turned out to be 170 µg/mL (≈ 614 µM). In addition, in the data set with Plutella xylostella [1], the mortality at 5000 µg/mL is 100%. Moreover, the mortality at 10000 µg/mL in the data set with Plutella xylostella [2] turned out to be 100%.
In the case of `O=C(/C=C/c1ccc(Cl)cc1)c1ccc2c(c1)OCO2`, the mortality at 5000 µg/mL with Plutella xylostella [1] was 13.3%. Moreover, in the data set on Plutella xylostella [2], the mortality at 10000 µg/mL was 23%.
`O=C(/C=C/c1ccco1)c1ccc([N+](=O)[O-])cc1`: the mortality at 5000 µg/mL with Plutella xylostella [1] came out at 16.6%. Moreover, the mortality at 10000 µg/mL in the data set with Plutella xylostella [2] came out at 23%.
In the case of `O=C(/C=C/c1ccc(Cl)cc1)c1ccc([N+](=O)[O-])cc1`, the mortality at 5000 µg/mL with Plutella xylostella [1] came to 20%. Further, in the data set with Plutella xylostella [2], the mortality at 10000 µg/mL was 26.6%.
Taken in the same sequence, the figures for `Cc1ccc(C(=O)/C=C/c2ccc(Cl)c(Cl)c2)cc1` were 60% and 83.3%.
Take `COc1ccc(/C=C/C(=O)c2ccc(Cl)cc2)cc1`: in the data set on Plutella xylostella [1], the mortality at 5000 µg/mL was 26.6%. For the same compound, the mortality at 10000 µg/mL in the data set with Plutella xylostella [2] was found to be 50%.
Turning to `COc1ccc(C(=O)/C=C/c2ccc(Cl)c(Cl)c2)cc1OC`, the mortality at 5000 µg/mL in the data set with Plutella xylostella [1] stood at 46.6%. In the data set on Plutella xylostella [2], the mortality at 10000 µg/mL was determined as 68%.
For the compound `COc1ccc(C(=O)/C=C/c2ccc(Cl)cc2)cc1`, the LC50 in the data set on Plutella xylostella [4] amounted to 356 µg/mL (≈ 1310 µM). Also, the mortality at 5000 µg/mL in the data set with Plutella xylostella [1] stood at 100%. Also, the mortality at 10000 µg/mL in the data set with Plutella xylostella [2] stood at 100%.
As to `COc1ccc(/C=C/C(C)=O)cc1`, the mortality at 5000 µg/mL with Plutella xylostella [1] was found to be 26.6%. Moreover, in the data set with Plutella xylostella [2], the mortality at 10000 µg/mL was 30%.
On to `O=C(/C=C/c1ccc(Cl)cc1)c1ccc(O)cc1`, for which the LC50 in the data set with Plutella xylostella [4] was 871 µg/mL (≈ 3370 µM). The mortality at 5000 µg/mL with Plutella xylostella [1] turned out to be 100%. Also, the mortality at 10000 µg/mL in the data set on Plutella xylostella [2] was found to be 100%.
Regarding `COc1cc(OC)c(OC)cc1/C=C/C(C)=O`, the mortality at 5000 µg/mL with Plutella xylostella [1] amounted to 0%. Besides, the mortality at 10000 µg/mL in the data set on Plutella xylostella [2] came to 26.6%.
Turning to `O=C(/C=C/c1cccs1)c1ccc([N+](=O)[O-])cc1`, the mortality at 5000 µg/mL in the data set with Plutella xylostella [1] turned out to be 23.3%. Besides, the mortality at 10000 µg/mL in the data set with Plutella xylostella [2] was 30%.
Taken in the same sequence, the figures for `COc1ccccc1C(=O)/C=C/c1ccc(Cl)c(Cl)c1` were 50% and 63.3%.
